Results reported in US9155289B2, “Methods concerning PPAR delta and antagonists thereof” (University Court of the University of Dundee, priority 2008, dated 2015).
Blank lines part the entries; values can stand above or below the compound they belong to.

How the values were obtained:
[1] = cited from earlier work
[2] = tested on: PPARδ transgenic mice; experiment: Skin phenotype in PPARδ transgenic mice after PPARδ activation; format: in vivo, mouse
Experimental: FIG. 5. Skin phenotype in PPARδ transgenic mice twenty days after beginning of GW501516 (GW) administration. (FIGS. 5a-5c) Gross morphology, (FIGS. 5d-5e) H&E histology of control mice not treated with GW (5d), or fourteen days after induction (5e-5g). Magnification 200× (5d,5e) or 400× (5f). (5g) Immunostaining for Ki67 of skin from PPARδ transgenic mice maintained in the absence (left) or presence (right) of GW. Magnification 200×. (5h) Induction of skin disease by topical application of either 0.3% of indole-3-carbinole (I3C, left) or I3C plus 0.3% GW501516 once daily to shaved abdominal skin. Gross macroscopic phenotype (top) and H&E histology of treated skin (bottom) was documented 10 days after beginning of treatment; and
Mice were generated which are inducible to overexpress human PPARδ in the skin and a wide range of other tissues and organs, including the spleen, under the control of the CYP1A1 promoter. The CYP1A1 dioxin-responsive promoter was initially chosen because it is known to be transactivated by the aryl hydrocarbon receptor (AHR) upon binding of specific AHR agonist ligands. (Campbell et al., Regulation of the CYP1A1 promoter in transgenic mice: an exquisitely sensitive on-off system for cell specific gene regulation, J. Cell Science, 1996, 109 (Pt. 11), 2619-2625).
The mice were generated by cloning full-length human PPARδ downstream of the human CYP1A1 promoter. Plasmids encoding human PPARδ were prepared by the following protocol. The coding sequences of PPARδ, were amplified using primers PRMG15 (5′-[…]-3′) and PR MG3 (5′-[…]-3′), respectively (XbaI-sites underlined, ATG start codon in bold). The PCR products were cleaved with XbaI and cloned in plasmid pUHD10-3 (M. Gossen, unpublished, Genbank accession number U89931) creating pMGD7 (PPARδ). The integrity of the inserts were confirmed by sequencing and cleaved out using BamHI and ligated into plasmid pAHIR1-β-gal (Campbell, 1996} cleaved with BglII, resulting in the plasmid pMGD72 (PPARδ). The proper orientations of the inserts were confirmed by restriction endonuclease analysis and sequencing. Transgenic mice were generated by microinjection of the expression unit (NotI fragment) of the plasmid pMGD72 into pro-nuclei of C57BL/J6×CBA F1 fertilized eggs. Mice were maintained under standard animal house conditions.
In a first study, indole-3-carbinole (I3C) introduced into the chow at a final concentration of 0.5% (w/w), for one week, was used to induce expression of PPARδ. The resulting translated protein was conformationally activated by the specific PPARδ ligand GW-501516 (2-Methyl-4-((4-methyl-2-(4-trifluoromethylphenyl)-1,3-thiazol-5-yl)-methylsulfanyl)phenoxy-acetic acid), added in powdered form to the chow at a concentration of 0.003% (w/w) for an additional 16 days. This activation mechanism is illustrated in FIG. 1. Thus, PPARδ can be transcriptionally activated and conformationally activated by concurrent feeding with I3C and GW-501516.

[3] = tested on: human PPARδ; conditions: mouse, in vivo
Experimental: FIG. 2(a) illustrates Western blot analyses of 10 μg of total protein extract of transgenic mice fed I3C or control diet in an experiment in which PPARδ expression was induced in mice harbouring CYP1A1-controlled PPARδ by oral administration of indole-3-carbinol (I3C) for seven days (top); and an experiment in which PPARδ was expressed by feeding of I3C and activated by additional administration of the specific PPARδ ligand GW-501516 (GW) for 25 days (bottom); FIG. 2(b) is a close-up photograph of the macroscopic phenotype of mice receiving both I3C and GW-501516 administration; FIG. 2(c) is a photograph of standard H&E histology stains prepared from abdominal skin of the animals shown in FIG. 2(a);
FIG. 3 illustrates experimental results from arising from the inducible expression of PPARδ in mouse epidermis. FIG. 3(a) Cis-regulatory elements in the rat CYP1A1 promoter used to drive inducible expression of human PPARδ. Upper panel: Map of the sebaceous-specific G/C-box element and the AHR-responsive DXE/XRE cluster in the cyp1A1 promoter as well as the human K5 promoter. Bottom panel: ClustalW alignment of promoters identified by a BLAST search using the 20 bp G/C element of the Cyp1A1 promoter. All of the genes shown were found in the top 10% percentile of all transcripts expressed in human sebaceous glands (GDS3215 at the NCBI GEO website www.ncbi.nlm.nih.gov/geo/). FIG. 3(b) illustrates immunohistochemistry using anti-PPARδ of mice transgenic for human PPARδ driven by the rat CYP1A promoter (PPARδ TG), as well as wild type mice. Magnification 200×; FIG. 3(c) illustrates immunohistochemistry of abdominal skin samples from PPARδ transgenic mice taken at the indicated times after initiation of PPARδ activation mediated by administration of the synthetic ligand GW501516 in the chow; FIG. 3(d) illustrates PPARδ immunohistochemistry 48 h after topical application of indole-3-carbinole (I3C) to the skin of PPARδ transgenic mice at 200× (left) and 400× (right) magnification; […]

[4] = tested on: unmodified mice; experiment: Control experiments in unmodified mice; format: in vivo, mouse; conditions: GW-501516 administered to unmodified mice
Experimental: The mice were prepared for the purposes of studies concerning a wide range of cancer phenotypes and liver fat accumulation.

Compound: COC(=O)c1sccc1S(=O)(=O)Nc1ccc(Nc2ccccc2)cc1OC [GSK 0660, methyl 3-({[2-(methoxy)-4-phenyl]amino}sulfonyl)-2-thiophenecarboxylate]
in vivo bioavailability [1]: lacks in vivo bioavailability

Compound: Cc1cc(SCc2sc(-c3ccc(C(F)(F)F)cc3)nc2C)ccc1OCC(=O)O [GW-501516, 2-Methyl-4-((4-methyl-2-(4-trifluoromethylphenyl)-1,3-thiazol-5-yl)-methylsulfanyl)phenoxy-acetic acid]
skin phenotype (scaling, erythema, skin thickening) ([2]; GW501516 alone, without I3C, as early as seven days after initiation): scaling, erythema formation, and skin thickening was notable in all PPARδ transgenic mice
skin phenotype (scaling, skin thickening, inflammation) ([2]; PPARδ induced by I3C feeding (0.5% w/w chow), activated by GW-501516 0.003% w/w in chow, after 25 days): a dramatic skin phenotype was observed
skin phenotype ([2]; topical I3C plus additional topical GW501516 (0.3% each, once daily, 10 days)): effectively replicated
PPARδ expression in the epidermis [3]: strong expression of PPARδ in the epidermis
psoriatic symptoms [4]: no psoriatic symptoms were observed

PPARδ expression in skin [3]: inducible
PPARδ expression in skin and lymph nodes [3]: strong induction of PPARδ expression
Compound: OCc1c[nH]c2ccccc12 [I3C, indole-3-carbinole]
skin changes ([2]; prolonged chow with I3C 0.5% w/w, in the absence of PPARδ activation): caused no skin changes
skin phenotype ([2]; topical I3C alone to the skin): unable to elicit a phenotype
